Experiment: Growth inhibition in human NCI60 cells
Assay type: functional
Settings: for TGI: read-out: Log TGI (converted)

| Compound | GI50 [µM] | LC50 [µM] | TGI [µM] |
| --- | --- | --- | --- |
| COC(=O)CCC(=O)C1=C(C)/C(=C/c2[nH]c(-c3ccc[nH]3)cc2OC)N=C1C | 0.794 | 12.3 | 3.24 |
| CCCCCC1=C/C(=C/c2[nH]c(-c3ccc[nH]3)cc2OC)N=C1C [PRODIGIOSIN CHLORIDE] | 0.0141 |  | 2.09 |
| COC(=O)CCCCCCCCC(=O)C1=C(C)/C(=C/c2[nH]c(-c3ccc[nH]3)cc2OC)N=C1C | 16.2 | 95.5 | 67.6 |
| CCOC(=O)C1=C(C)/C(=C/c2[nH]c(-c3ccc[nH]3)cc2OC)N=C1C [PRODIGIOSIN 4] | 0.0468 | 12.3 | 1.1 |
| COc1cc(-c2ccc[nH]2)[nH]c1/C=C1\N=C(C)C(C(C)=O)=C1C [PRODIGIOSIN5] | 0.708 | 89.1 | 40.7 |
| COC(=O)CCCCC(=O)C1=C(C)/C(=C/c2[nH]c(-c3ccc[nH]3)cc2OC)N=C1C | 0.646 | 6.46 | 2.24 |
| CCc1c(-c2ccc[nH]2)[nH]c(/C=C2\N=C(C)C(C(=O)CCCCC(=O)OC)=C2C)c1C | 9.33 | 83.2 | 33.9 |

From ChEMBL document CHEMBL1142989, “Synthesis and anti-cancer activity of C-ring-functionalized prodigiosin analogues” (2007)
